These results are taken from ChEMBL document CHEMBL1201862, “PubChem BioAssay data set” (2004).

One assay concerns the target Beta-galactosidase (Escherichia coli, UniProt Q8VNN2). Nature of the assay: PubChem AID 485352. It is filed as functional.
For assay [1], the target named is T1, Type-1 angiotensin II receptor (Homo sapiens, UniProt P30556).
T1 sequence (P30556 whole entry): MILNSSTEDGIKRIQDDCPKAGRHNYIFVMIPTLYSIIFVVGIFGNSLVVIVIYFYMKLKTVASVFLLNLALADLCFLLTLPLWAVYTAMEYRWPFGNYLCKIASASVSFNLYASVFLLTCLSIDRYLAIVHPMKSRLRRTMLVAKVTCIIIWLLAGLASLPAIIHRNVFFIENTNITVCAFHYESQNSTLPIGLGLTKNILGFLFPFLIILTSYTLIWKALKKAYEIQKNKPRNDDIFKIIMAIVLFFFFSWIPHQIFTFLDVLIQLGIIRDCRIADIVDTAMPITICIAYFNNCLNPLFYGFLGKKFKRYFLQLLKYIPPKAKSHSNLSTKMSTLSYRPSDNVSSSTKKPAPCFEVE
Description: antagonism of angiotensin II type 1 receptor – cell-based, uHTS hits, selectivity assay for APJ receptor antagonist project, dose response (AID 463214).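 Further: antagonist potency against angiotensin II stimulated AT1 response.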 It is filed as functional.

Assay [2] deals with Voltage-dependent T-type calcium channel subunit alpha-1H (Homo sapiens, UniProt O95180). It is filed as functional.
Voltage-dependent T-type calcium channel subunit alpha-1H, sequence (O95180 whole entry): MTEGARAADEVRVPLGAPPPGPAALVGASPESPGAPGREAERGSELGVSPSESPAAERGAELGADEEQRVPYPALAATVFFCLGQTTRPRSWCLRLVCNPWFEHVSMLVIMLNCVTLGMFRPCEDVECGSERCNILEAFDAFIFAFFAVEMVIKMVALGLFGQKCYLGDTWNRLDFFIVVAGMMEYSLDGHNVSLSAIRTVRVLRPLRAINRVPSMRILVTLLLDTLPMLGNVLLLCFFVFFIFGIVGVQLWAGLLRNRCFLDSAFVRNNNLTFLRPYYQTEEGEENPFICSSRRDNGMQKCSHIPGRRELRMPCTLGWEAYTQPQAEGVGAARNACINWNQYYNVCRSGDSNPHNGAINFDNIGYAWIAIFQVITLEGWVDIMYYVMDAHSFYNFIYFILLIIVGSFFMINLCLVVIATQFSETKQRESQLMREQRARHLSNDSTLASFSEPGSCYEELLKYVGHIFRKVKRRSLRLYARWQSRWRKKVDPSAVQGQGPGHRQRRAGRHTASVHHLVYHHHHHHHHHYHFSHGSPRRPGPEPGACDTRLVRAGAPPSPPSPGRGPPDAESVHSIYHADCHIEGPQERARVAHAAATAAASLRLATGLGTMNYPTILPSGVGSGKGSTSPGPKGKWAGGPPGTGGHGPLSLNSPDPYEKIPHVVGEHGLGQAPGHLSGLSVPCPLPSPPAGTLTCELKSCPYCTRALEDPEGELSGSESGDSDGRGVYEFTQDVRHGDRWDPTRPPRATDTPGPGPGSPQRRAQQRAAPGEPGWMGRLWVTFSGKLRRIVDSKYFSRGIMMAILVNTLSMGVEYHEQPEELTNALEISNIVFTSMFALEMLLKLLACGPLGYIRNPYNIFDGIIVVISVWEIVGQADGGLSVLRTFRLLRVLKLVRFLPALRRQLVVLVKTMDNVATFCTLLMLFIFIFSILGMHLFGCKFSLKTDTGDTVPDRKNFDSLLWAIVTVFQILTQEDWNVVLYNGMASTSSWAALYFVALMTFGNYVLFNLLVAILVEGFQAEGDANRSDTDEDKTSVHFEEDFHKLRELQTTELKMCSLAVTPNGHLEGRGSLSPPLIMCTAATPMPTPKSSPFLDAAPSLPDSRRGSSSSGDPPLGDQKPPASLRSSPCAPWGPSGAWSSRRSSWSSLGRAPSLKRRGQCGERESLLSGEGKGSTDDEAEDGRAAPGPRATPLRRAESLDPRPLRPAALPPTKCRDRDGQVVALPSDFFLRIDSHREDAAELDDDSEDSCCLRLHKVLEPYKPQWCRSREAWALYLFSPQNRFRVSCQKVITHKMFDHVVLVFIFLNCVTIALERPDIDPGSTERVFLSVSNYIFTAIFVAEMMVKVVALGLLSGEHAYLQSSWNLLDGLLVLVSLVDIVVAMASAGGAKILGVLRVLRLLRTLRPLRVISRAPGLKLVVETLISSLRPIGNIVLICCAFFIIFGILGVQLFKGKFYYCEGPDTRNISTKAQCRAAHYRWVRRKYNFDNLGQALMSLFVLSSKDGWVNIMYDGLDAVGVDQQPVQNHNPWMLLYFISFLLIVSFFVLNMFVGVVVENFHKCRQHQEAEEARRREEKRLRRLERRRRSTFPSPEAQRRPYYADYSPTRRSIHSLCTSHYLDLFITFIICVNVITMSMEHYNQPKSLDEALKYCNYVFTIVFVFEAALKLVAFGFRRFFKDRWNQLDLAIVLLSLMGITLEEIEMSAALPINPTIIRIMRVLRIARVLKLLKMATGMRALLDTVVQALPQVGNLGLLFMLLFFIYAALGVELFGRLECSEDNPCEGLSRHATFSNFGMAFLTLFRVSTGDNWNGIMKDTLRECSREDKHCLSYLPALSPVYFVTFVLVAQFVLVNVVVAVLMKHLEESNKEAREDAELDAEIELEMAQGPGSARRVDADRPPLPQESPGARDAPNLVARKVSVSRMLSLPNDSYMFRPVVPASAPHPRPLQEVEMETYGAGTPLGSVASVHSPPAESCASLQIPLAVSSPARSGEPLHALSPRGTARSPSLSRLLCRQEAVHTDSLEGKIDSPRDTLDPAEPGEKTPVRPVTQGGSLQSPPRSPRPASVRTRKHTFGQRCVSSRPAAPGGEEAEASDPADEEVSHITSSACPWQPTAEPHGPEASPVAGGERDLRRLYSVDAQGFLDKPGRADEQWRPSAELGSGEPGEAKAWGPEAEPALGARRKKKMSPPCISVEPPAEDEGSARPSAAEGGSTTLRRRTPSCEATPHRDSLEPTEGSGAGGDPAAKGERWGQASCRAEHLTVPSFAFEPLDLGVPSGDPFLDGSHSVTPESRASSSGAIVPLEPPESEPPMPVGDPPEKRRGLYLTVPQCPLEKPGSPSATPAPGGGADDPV
The next assay concerns P388/ADR. Nature of the assay: cells. It is filed as functional. As to conditions: Mus musculus.
The test system of the next assay is SN12K1. Description: cells. It is filed as functional. As to conditions: Homo sapiens.
A further assay deals with Cytochrome P450 3A4 (Homo sapiens, UniProt P08684). The following applies: Potency.
Cytochrome P450 3A4, sequence (P08684 whole entry): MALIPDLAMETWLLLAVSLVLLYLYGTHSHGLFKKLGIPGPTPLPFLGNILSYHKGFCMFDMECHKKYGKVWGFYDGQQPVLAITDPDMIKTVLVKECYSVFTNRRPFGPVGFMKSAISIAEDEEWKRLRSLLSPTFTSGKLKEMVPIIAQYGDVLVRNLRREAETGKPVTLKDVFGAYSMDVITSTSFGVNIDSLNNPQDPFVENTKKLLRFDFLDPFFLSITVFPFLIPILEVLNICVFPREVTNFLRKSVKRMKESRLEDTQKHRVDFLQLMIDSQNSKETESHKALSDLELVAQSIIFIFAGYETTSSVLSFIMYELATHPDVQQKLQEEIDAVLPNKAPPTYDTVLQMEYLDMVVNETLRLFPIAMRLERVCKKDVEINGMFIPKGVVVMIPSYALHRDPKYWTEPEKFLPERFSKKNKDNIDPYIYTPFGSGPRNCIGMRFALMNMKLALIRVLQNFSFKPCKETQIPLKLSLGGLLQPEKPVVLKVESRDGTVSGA
A further assay concerns P388. Nature of the assay: cells. It is filed as functional. As to conditions: Mus musculus.
A short description of assay [3]: A cytotoxicity screen of small molecule inhibitors of the PhoP region in Salmonella typhi identified in the primary screen. [Related pubchem assays: 1850, 1864, 1985 ]. Type of assay: functional.
The nature of assay [4]: viability of uninfected HEp-2 cells – cell-based, HTS, cytotoxicity control for RSV inhibitor project, dose response (AID 2410). Type of assay: functional. The following applies: human respiratory syncytial virus.
Assay [5] is described as follows: fluconazole-exposed Candida albicans growth modulators – fluorescence, retest, confirmation (AID 2467). Type of assay: functional, cell-based.
Assay [6] is described as follows: NIH-3T3 fibroblast cytotoxicity, dose response, cytotoxicity control, cell-based, fluorescence, Alamar Blue, secondary assay (AID 2327).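 Further: NIH-3T3 mouse fibroblasts cultured with fluconazole at 8 µg/mL.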 Type of assay: functional. Background: Alamar Blue is a resazurin reagent that responds to reducing activity.
For assay [7], the target named is T2, Endoribonuclease toxin MazF (Escherichia coli K-12, UniProt P0AE70).
T2 sequence (P0AE70 whole entry): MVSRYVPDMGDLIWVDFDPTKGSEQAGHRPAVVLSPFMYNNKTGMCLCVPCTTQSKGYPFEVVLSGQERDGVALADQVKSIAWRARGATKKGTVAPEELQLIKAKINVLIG
Description: activation of MazEF endoribonuclease cleavage – biochemical, fluorescence, single-stranded RNA substrate, uHTS hits, dose response (AID 588481). It is filed as functional.

The target of assay [8] is T2, Endoribonuclease toxin MazF. Nature of the assay: substrate-only fluorescence increase artefacts – biochemical, single-stranded RNase substrate, counter-screen for MazEF activator project, dose response (AID 588502). Type of assay: functional.
Assay [9] deals with Streptococcus sp. 'group A'. Nature of the assay: Streptococcus pyogenes SK(-)GAS viability under kanamycin – luminescence, BacTiterGlo, confirmation, counter-screen for streptokinase expression inhibitor project, dose response (AID 1900). It is filed as functional, organism-based. On the technique in general: Counterscreens check selectivity or assay interference.
The test system of another assay is Streptococcus. Nature of the assay: GAS UMAA2166 growth inhibition – luminescence, BacTiterGlo, counter-screen for streptokinase expression inhibitor project, dose response (AID 1915).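 Further: potency for reduction of bacterial viability or growth.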 It is filed as functional, organism-based.
Assay [10] concerns the target Glyceraldehyde-3-phosphate dehydrogenase (Homo sapiens, UniProt P04406).
A short description of assay [11]: microbe, parasite or virus in culture. It is filed as functional. As to conditions: Mycobacterium tuberculosis.
For assay [12], the target named is T3, DNA repair protein RAD52 homolog (Homo sapiens, UniProt P43351).
T3 sequence (P43351 whole entry): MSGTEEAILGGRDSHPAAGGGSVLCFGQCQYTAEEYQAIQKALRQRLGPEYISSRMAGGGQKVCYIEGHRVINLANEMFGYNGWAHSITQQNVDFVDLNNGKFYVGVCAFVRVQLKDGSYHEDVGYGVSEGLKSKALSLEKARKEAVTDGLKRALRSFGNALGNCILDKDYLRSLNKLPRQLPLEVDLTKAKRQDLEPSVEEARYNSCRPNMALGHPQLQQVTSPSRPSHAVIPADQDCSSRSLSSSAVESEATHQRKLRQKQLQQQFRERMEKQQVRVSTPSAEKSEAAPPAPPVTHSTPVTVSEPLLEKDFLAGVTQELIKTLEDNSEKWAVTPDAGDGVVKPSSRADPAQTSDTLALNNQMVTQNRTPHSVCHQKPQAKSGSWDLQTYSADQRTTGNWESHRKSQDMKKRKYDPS
It is filed as functional, biochemical.

Assay [13] has as its target FAD-linked sulfhydryl oxidase ALR (Homo sapiens, UniProt P55789). Description: ALR-catalysed DTT oxidation blockers – biochemical, H2O2 detection, luminescence, cherry-pick, dose response (AID 493248).

By EC50 is commonly meant the concentration needed to bring the measured effect to its halfway point. The IC50 is the concentration that gives 50% inhibition. One may read the GI50 as the concentration that inhibits growth by half. In general, AC50 refers to the midpoint of the concentration-response curve, whichever way the signal moves.

Structures are written as SMILES. Active and inactive are the calls of the source. A value given as a limit tells only on which side of the number the result lay.

Beta-galactosidase, sequence (Q8VNN2 whole entry): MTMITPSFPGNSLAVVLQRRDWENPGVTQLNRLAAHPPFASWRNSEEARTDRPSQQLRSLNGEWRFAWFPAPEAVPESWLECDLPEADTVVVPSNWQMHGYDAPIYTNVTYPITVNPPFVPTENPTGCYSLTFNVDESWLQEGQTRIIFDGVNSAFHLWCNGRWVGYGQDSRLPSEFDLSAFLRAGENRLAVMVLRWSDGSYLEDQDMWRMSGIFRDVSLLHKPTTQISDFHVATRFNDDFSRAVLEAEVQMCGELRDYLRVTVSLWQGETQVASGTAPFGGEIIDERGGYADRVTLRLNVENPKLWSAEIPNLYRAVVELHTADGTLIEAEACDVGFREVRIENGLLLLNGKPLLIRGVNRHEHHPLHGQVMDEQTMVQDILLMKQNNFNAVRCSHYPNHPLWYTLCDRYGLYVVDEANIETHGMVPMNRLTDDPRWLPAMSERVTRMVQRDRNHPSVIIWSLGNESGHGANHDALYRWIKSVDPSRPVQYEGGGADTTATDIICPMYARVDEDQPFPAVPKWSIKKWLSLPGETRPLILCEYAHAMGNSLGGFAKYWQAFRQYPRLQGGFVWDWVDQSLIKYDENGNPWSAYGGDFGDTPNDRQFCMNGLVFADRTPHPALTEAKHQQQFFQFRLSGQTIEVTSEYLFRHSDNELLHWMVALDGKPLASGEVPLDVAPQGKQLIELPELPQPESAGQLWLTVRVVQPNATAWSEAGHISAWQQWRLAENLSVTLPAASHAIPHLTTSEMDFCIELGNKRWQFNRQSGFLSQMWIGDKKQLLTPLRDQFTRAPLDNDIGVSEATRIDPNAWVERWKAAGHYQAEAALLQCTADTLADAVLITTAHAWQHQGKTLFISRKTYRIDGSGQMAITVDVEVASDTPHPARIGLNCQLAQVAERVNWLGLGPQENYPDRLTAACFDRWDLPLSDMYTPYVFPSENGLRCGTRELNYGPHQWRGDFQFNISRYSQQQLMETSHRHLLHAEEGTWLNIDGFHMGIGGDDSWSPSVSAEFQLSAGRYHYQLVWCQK
Glyceraldehyde-3-phosphate dehydrogenase, sequence (P04406 whole entry): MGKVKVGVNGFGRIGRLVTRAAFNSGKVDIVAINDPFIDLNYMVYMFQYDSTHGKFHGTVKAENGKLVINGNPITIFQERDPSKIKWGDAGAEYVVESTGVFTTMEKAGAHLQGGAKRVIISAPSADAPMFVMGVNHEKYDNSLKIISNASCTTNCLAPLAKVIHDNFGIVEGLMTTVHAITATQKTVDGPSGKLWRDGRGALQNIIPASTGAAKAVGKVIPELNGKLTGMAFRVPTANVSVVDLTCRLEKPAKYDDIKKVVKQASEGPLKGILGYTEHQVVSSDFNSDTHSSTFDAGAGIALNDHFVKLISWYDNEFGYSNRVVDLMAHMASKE
FAD-linked sulfhydryl oxidase ALR, sequence (P55789 whole entry): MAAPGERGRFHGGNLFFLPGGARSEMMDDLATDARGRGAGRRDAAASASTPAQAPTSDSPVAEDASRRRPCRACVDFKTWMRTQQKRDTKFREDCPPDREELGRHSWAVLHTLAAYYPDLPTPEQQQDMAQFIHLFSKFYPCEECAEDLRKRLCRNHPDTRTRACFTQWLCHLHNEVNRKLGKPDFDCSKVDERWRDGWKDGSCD

On to `Cc1nn(CCC(=O)NN=C(S)Nc2ccc(F)cc2)c(C)c1Br`, for which the EC50 on Beta-galactosidase is > 40 µM (inactive). Moreover, the IC50 in assay [1] is reported as > 40 µM (not active). As for `O=C(CSc1nnc(-c2ccccc2)n1Cc1ccco1)NCc1ccc2c(c1)OCO2`, the EC50 in [2] is 12.1 µM (active). For `COc1cccc(/N=C2\NC(=O)/C(=C/c3cc([N+](=O)[O-])ccc3O)S2)c1`, the EC50 at Beta-galactosidase is > 40 µM (inactive). Besides, the IC50 in assay [1] is on record as > 40 µM (not active). As to `CCC1(c2ccc(N)cc2)CCC(=O)NC1=O` (stereo unspecified) [AMINOGLUTETHIMIDE], the GI50 in the assay with P388/ADR is 1610 µM (inactive); in the assay on SN12K1 it was 1690 µM (inactive); with P388 it was 2390 µM (inactive). For the same compound, the AC50 on Cytochrome P450 3A4 was 31.6 µM (inconclusive).

On to `O=C(COC(=O)c1ccco1)c1ccc(S(=O)(=O)N2CCCCC2)cc1`, for which the EC50 on Beta-galactosidase was > 40 µM (inactive). Also, the IC50 in [1] is 16.5 µM (active). As to `Clc1ccc2c(NCc3ccccn3)ccnc2c1`, the EC50 in [3] is > 50 µM (active). `CCc1ccccc1Nc1nc(N)nc(COC(=O)c2cccn2C)n1`: the CC50 in [4] was 17.3 µM (active). Also, the IC50 in “cells” was 13 µM (active). Consider `CSc1ncc(Cl)c(C(=O)C(C#N)c2nc(O)c3cc(C)cc(C)c3n2)n1` (stereo unspecified), for which the EC50 is 2.48 µM (active) in [5] and 18.3 µM (active) in [6].

For `COc1ccccc1C(=O)Nc1ccc(NC(=O)c2ccco2)c(C)c1`, the EC50 in assay [2] is 6.29 µM (active). With `NS(=O)(=O)c1ccc(CNC(=O)COc2ccc3c4c(c(=O)oc3c2)CCCC4)cc1`, the EC50 in assay [7] and in [8] was > 99 µM (inactive) in each case.

For `Cc1cccc2c1N(CCCOc1ccccc1)C(=O)C2=O`, at Beta-galactosidase, the EC50 is > 40 µM (inactive). Moreover, the IC50 in [1] is on record as > 40 µM (not active). Take `N#CC1CC(c2ccccc2)=NN1c1ccccc1[N+](=O)[O-]` (stereo unspecified): the EC50 in assay [5] is > 38 µM (not active); in assay [6], > 160 µM (inactive).

Consider `CC(=O)OCC1OC(C#CCC2CCCCC2)C=CC1OC(C)=O` (stereo unspecified), for which, on Cytochrome P450 3A4, the AC50 was 3.16 µM (inconclusive). Same read-out and setting: as for `Clc1ccc(C2[C@H]3CN(Cc4ccc(-c5ccccc5)cc4)[C@H](c4ccccc4)C34CC2(c2ccccc2)C4)cn1` (stereo partly specified), the figure is 15.8 µM (inconclusive). On to `O=[N+]([O-])c1cc(C(F)(F)F)ccc1NCC1CCCO1` (stereo unspecified), for which the EC50 in [7] and in assay [8] was > 99 µM (inactive) in each case. In the case of `COc1ccc(N(C(=O)Cn2cnc3ccccc32)C(C(=O)NC2CCCCC2)c2ccccc2)cc1` (stereo unspecified), the EC50 in [2] is 4.82 µM (active). As to `CC(C)=CCc1c2c(c3occ(-c4ccc(O)cc4)c(=O)c3c1O)C=CC(C)(C)O2` [OSAJIN], the 50% effective concentration (EC50) in assay [9] is 1.11 µM (active); with Streptococcus, 1.47 µM (active). Besides, the AC50 at Cytochrome P450 3A4 was 25.1 µM (inconclusive). In the case of `O=C(NCCO)c1cc(-c2cc(F)c(F)cc2F)n[nH]1`, in assay [10], the IC50 was > 10 µM (inconclusive). As for `Cc1ccc(C(=O)N/C(=C/c2ccc(-c3cc(C(F)(F)F)ccc3Cl)o2)C(=O)NCc2cccnc2)cc1`, the EC50 in [5] was > 38 µM (not active); in assay [6], 21.4 µM (active). Besides, the CC50 in assay [11] is > 40 µM (active). Regarding `O=C(/C=C/c1ccc(Cl)cc1)c1cccs1`, the AC50 at Cytochrome P450 3A4 was 25.1 µM (inconclusive). Regarding `Cc1ccc2oc(C(=O)Nc3ccc(S(=O)(=O)Nc4onc(C)c4C)cc3)c(C)c2c1`, the CC50 in assay [4] is 25.9 µM (active). Further, the IC50 in the assay “cells” is 23.7 µM (active). Turning to `CC(Nc1cccc2ccccc12)C(=O)N/N=C/c1ccc([N+](=O)[O-])cc1` (stereo unspecified), the CC50 in [4] is 21.8 µM (active). Moreover, the IC50 in “cells” was 22.1 µM (active). `CCn1c(CNc2ccccc2Cl)nnc1SCC(=O)OC1CCCCC1`: the EC50 in assay [2] is 3.84 µM (active).

`COc1ccc(OC)c(NC(=O)c2c3c(nc4ccccc24)CCC3)c1`: the EC50 in assay [5] was 2.17 µM (active); in assay [6], > 150 µM (inactive). Consider `COc1ccc(N(C(=O)c2cccnc2)S(=O)(=O)c2ccc(F)cc2)cc1`, for which the EC50 in assay [3] is > 50 µM (active). `Cc1ccc(S(=O)(=O)NC2CCCCC2)cc1`: the AC50 on Cytochrome P450 3A4 was 20 µM (inconclusive). For `Cc1cc(C)c2nc3nc(C)c(C)cc3c(N)c2c1`, the AC50 in [12] was 1.56 µM (active).

With `Cc1cc(NS(=O)(=O)c2ccc(NC(=O)Nc3cccc(Cl)c3)cc2)no1`, the EC50 in [3] was > 50 µM (active). Moreover, in [13], the AC50 is 0.098 µM (active). With `CC(=O)c1ccc(N2CCN(Cc3nc4ccccc4[nH]3)CC2)cc1`, in [4], the CC50 was > 50 µM (active). Besides, the IC50 in the assay “cells” was 10.8 µM (active). On to `C#CCN1C(=O)S/C(=C\c2ccc(N3CCOCC3)cc2C)C1=O`, for which the EC50 in assay [7] and in assay [8] was > 99 µM (inactive) in each case. For `COc1ccc(F)cc1S(=O)(=O)Nc1cccnc1`, in [10], the IC50 is reported as > 100 µM (not active). `Cc1cc(NC(=O)c2cccc(Oc3ccccc3)c2)[nH]n1`: the EC50 is 1.87 µM (active) in assay [5] and > 150 µM (inactive) in assay [6]. As for `O=C(O)c1cc(O)c2c(c1)C(=O)c1cc(O)cc(O)c1C2=O` [EMODIC ACID], the AC50 at Cytochrome P450 3A4 was 15.8 µM (inconclusive). With `CC1=NN(c2ccc(C)cc2)C(=O)/C1=C/c1ccc(-c2cc([N+](=O)[O-])ccc2O)o1`, the EC50 on Beta-galactosidase was > 40 µM (inactive). In assay [1], the concentration for half-maximal inhibition (IC50) is on record as > 40 µM (not active). Regarding `COc1ccc(C)cc1NC(=O)C1CCN(S(=O)(=O)c2c(C)noc2C)CC1`, in [3], the EC50 is > 50 µM (active). On to `CC(Oc1ccccc1)c1ccnn1S(=O)(=O)c1ccccc1` (stereo unspecified), for which, in assay [2], the EC50 was 50.8 µM (active). As to `Cc1ccc(C(=O)N/C(=C\c2ccc(C(C)C)cc2)C(=O)NCCCN2CCOCC2)cc1`, the IC50 in the assay “cells” is 14.6 µM (active).
